Measurements reported in BindingDB's records for PubMed 7791071 (Rhone-Poulenc Rorer Central Research, 1995).
“And” between values parts separate entries of the source, which are not always exact repeats. Identical values can stand only once.

What follows are compounds tested against T1, Cholecystokinin (Sus scrofa, UniProt P01356).
T1 sequence (P01356 whole entry): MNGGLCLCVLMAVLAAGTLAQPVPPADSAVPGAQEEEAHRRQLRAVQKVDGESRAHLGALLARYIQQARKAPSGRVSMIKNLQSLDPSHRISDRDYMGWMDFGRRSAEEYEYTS

Row | SMILES | Ki
1 | O=C(NC(Cc1c[nH]c2ccccc12)C(=O)O)c1ccc(Cl)cc1 (stereo unspecified) | > 10000 nM
2 | Cc1cccc(NC(=O)N[C@H]2N=C(c3ccccc3)c3ccccc3N(C)C2=O)c1 | 7.2 nM and 4.8 nM
3 | CN1C(=O)[C@@H](NC(=O)c2cc3ccccc3[nH]2)N=C(c2ccccc2)c2ccccc21 [1H-Indole-2-carboxylic acid (1-methyl-2-oxo-5-phenyl-2,3-dihydro-1H-benzo[e][1,4]diazepin-3-yl)-amide: 0.1C4H10O. 0.15CH2Cl2] | 141 nM and 87 nM
4 | CSCC[C@H](NC(=O)[C@H](Cc1ccc(OS(=O)(=O)O)cc1)NC(=O)[C@@H](N)CC(=O)O)C(=O)NCC(=O)N[C@@H](Cc1c[nH]c2ccccc12)C(=O)N[C@@H](CCSC)C(=O)N[C@@H](CC(=O)O)C(=O)N[C@@H](Cc1ccccc1)C(N)=O [(3S)-3-[(2S)-2-[(2S)-2-{2-[(2S)-2-[(2S)-2-[(3S)-3-amino-3-formamidopropanoic acid]-3-[4-(sulfooxy)phenyl]propanamido]-4-(methylsulfanyl)butanamido]acetamido}-3-(1H-indol-3-yl)propanamido]-4-(methylsulfanyl)butanamido]-3-{[(1S)-1-carbamoyl-2-phenylethyl]carbamoyl}propanoic acid] | 0.43 nM and 1.1 nM
5 | CSCC[C@H](NC(=O)[C@H](Cc1c[nH]c2ccccc12)NC(=O)CCNC(=O)OC(C)(C)C)C(=O)N[C@@H](CC(=O)O)C(=O)N[C@@H](Cc1ccccc1)C(N)=O [CAS_5534-95-2] | 3.3 nM and 6 nM
6 | CC(Cc1c[nH]c2ccccc12)(NC(=O)OC1C2CC3CC(C2)CC1C3)C(=O)NCC(NC(=O)CCC(=O)O)c1ccccc1 (stereo unspecified) [NSC_108186] | 0.46 nM and 2 nM
